From patent US9428552B2, “Stem cell mobilization and tissue repair and regeneration” (Wellstat Therapeutics Corporation, priority 2012, dated 2016)
“Also recorded” adds a separate entry of the source. Ends that are not written are not given here. Peptide text beside a SMILES is read from it.

Columns and labels:
EML-Cl cells = assay: CFU-GEMM number of EML cells after 3 hr serum and SCF deprivation; assay type: cell-based, murine; conditions: for rescue of CFU-GEMM: serum and SCF deprivation, 10 μM
Experimental: Erythroid myeloid lymphoid (EML) cells are an established multipotent hematopoietic precursor cell line (EML-Cl) that can be maintained in medium including stem cell factor (SCF) and Horse serum (HS). When plated in methylcellulose with cocktail of growth factors EML cells form mixed colonies (CFUmix or CFU-GEMM) containing a mix of erythroid and myeloid cells that can be enumerated after 7 days of incubation.
Starvation of EML-Cl cell line cells of serum and SCF during 3 hr causes majority of CFUmix to develop apoptosis and die, which decreases their number growing in methylcellulose substantially.
EML cells were grown in IMDM with 10% HS and 100 ng/ml of SCF in IMDM and used for all experiments in exponential growth phase.
Cells were washed from serum and growth factor with IMDM two times, counted and placed into 12 ml polypropylene tubes 2×10^6 cells in 2 ml for 3 hr incubation at t-37° C. and 5% CO2.
Cell suspensions after the incubation were centrifuged, diluted 5 times with IMDM and counted using a hemacytometer. Cells were adjusted to 10^3 cells/mL in IMDM and cell suspension was placed into 50 mL tubes with 4.5 mL of Methylcellulose M3434 mixed well and seeded into 35-mm Petri dishes (Falcon BD351008) at 1 mL/dish. Cells were incubated at 37° C., 5% CO2.
CFU were scored using an inverted microscope after 7 days of incubation.

murine recombinant DPPIV = murine recombinant DPPIV (Mus musculus, UniProt P28843); assay: Hydrolysis of N-terminal by recombinant DPPIV; assay type: in vitro ADME; conditions: previously shown
human recombinant DPPIV = human recombinant DPPIV (Homo sapiens, UniProt P27487); assay: Hydrolysis of N-terminal by recombinant DPPIV; assay type: in vitro ADME; conditions: previously shown
[1] = Cleavage of peptide during 3 hr incubation with murine bone marrow cells (HPLC, MS); assay type: in vitro ADME; conditions: 100 μg/ml, 37° C., absence of serum
Experimental: B6D2F1 mice (HSD) were treated with 100 mg/kg testosterone propionate 24 hr before being sacrificed, femurs were removed and bone marrow cells (BMC) were flushed from bone marrow cavity. BMC—5×10^6 cells/ml was resuspended in IMDM. Cell suspension was placed into 14-ml Falcon tubes (BD). Peptide Compound A, (Think Peptides) was added to cells at 100 μg/ml concentration. The appropriate volume of IMDM was added to another control supernatant tube containing 1 ml of cells. Cells were incubated for 3 hours at 37° C. After 3 hours of incubation, tubes were centrifuged, supernatants were collected and proteins with Mw>10 KD were eliminated by Amicon filtration at 3000 rpm 25 minutes. 0.5 ml of supernatant containing <10 Kd material was collected from each sample and heat inactivated during 10 min at t-70° C. The following samples were prepared for HPLC and MS: Control supernatant (<10 Kd); Supernatant from cells incubated with Compound A (<10 Kd); Compound A (50 μL) spiked into cell culture medium; and Compound C (50 μL) spiked into cell culture medium.

hindlimb ischemia = assay: Unilateral hindlimb ischemia by femoral artery ligation; assay type: in vivo; conditions: C57/BL6 mice, day 9; peptide 250 μg/kg s.c., DFO 100 mg/kg i.m.
From the text: Ligation of the femoral artery in mice is an established model of hindlimb ischemia for testing treatments that might improve revascularization and functional recovery.
A total of 50 C57/B16 8-10 week old female mice were divided into 5 treatment groups (n=10/group).
• 1. Vehicle Control • 2. DFO (intramuscular) DFO (desferrioxamine) has been reported to improve revascularization by augmenting HIF-1α activation in sites of damage, to elicit secretion of local angiogenic factors and chemotactic signals that attract circulating repair-promoting stem and progenitor cells) • 3. DFO (intramuscular)+Compound C (subcutaneous) • 4. Compound A (subcutaneous) • 5. DFO (intramuscular)+Compound A (subcutaneous)
Mice were subjected to unilateral total ligation and transection of the femoral artery under anesthesia (2% Isoflurane mixed with 100% oxygen). A unilateral incision was made over the left medial thigh of each mouse. […]
On day 0, 4, 9, and 14, the condition of left hind limbs were evaluated with Muscle Function Score and Ischemia Score. […]
Recovery of circulation and function in the hindlimb ischemia model involves angiogenesis and revascularization, a process triggered by oxygen deficits. Revascularization was evaluated on day 14 after artery ligation by counting capillaries in cross sectional histology slides prepared from gastrocnemius muscles from both legs. […]

CFU-GEMM [2] = assay: Effect of S1P gradient disruption (DOP) on mobilization after multiple subcutaneous injections; assay type: in vivo; conditions: DBA/2J mice, DOP in glucose drinking water
Experimental: In this experiment the inhibitor of S1P lyase activity, 4-deoxypyridoxine (DOP, Sigma-Aldrich) was administrated to mice in the drinking water in order to test if disruption of S1P gradient has an effect on mobilization induced by Compound A. Fifteen week-old DBA/2J male mice (Jackson Laboratories) were divided into 4 groups of 4 mice each. All Mice received glucose drinking water (10 g/L) throughout the duration of the study. DOP ([…]) was added to the glucose water of two groups. Mice were subcutaneously injected for four consecutive days with 500 μg/kg of Compound A or Saline. At one-hour post injections on day 4, peripheral blood from mice was harvested from the orbital plexus using capillary tubes (VWR) and collected into EDTA-containing tubes (BD). To determine mobilization of colony-forming unit cells out of the peripheral blood, mononuclear cells were plated in mouse methylcellulose complete media (R&D Systems). The cells were placed into 35-mm Petri dishes at 100,000 cells per dish with 5 dishes per group. Cells incubated for 11 days in a 37° C. and 5% CO2 humidified incubator. CFU colonies were then scored using an inverted microscope.

CFU-GEMM [3] = assay: Mobilization of CFU-GEMM and CFU-GM in db/db mice with high glucose level; assay type: in vivo; conditions: 5 mg/kg s.c.
Experimental: To test mobilizing effect of Compound A in db/db mice with high level of glucose the following experiment was conducted. BKS.Cg-Dock7m+/+Leprdb/J male mice (10 weeks old Jackson Laboratories, stock #000642) were subcutaneously injected with 0.9% saline (vehicle control), 5 mg/kg Compound C, or 10 mg/kg Compound A (ThinkPeptides) for 5 consecutive days. At 7 days post initial injection, peripheral blood from 3 mice per group was harvested from the orbital plexus using capillary tubes (VWR) and collected into EDTA-containing tubes (BD).

Caspase-3 = Caspase-3 fluorimetric assay in EML cell lysates after HS and SCF deprivation; assay type: cell-based, murine; conditions: for Caspase-3 proteolytic activity, Exp 1 / Caspase-3 proteolytic activity, Exp 2 / Caspase-3 proteolytic activity, Exp 3 / Caspase-3 proteolytic activity, Sum of 3 experiments: 10 μM present during starvation, starvation control 100%; for Caspase-3 activation induced by HS and SCF deprivation: EML cells, peptide present during starvation
Experimental: To assess possible effect of Compound A and other peptides on Caspase-3 enzymatic activity during apoptosis induced by serum starvation fluorimetric assay Caspase-3 assay was performed according to the manufacturer's instructions (ApoAlert Clontech Mountain view CA).
Cell suspensions after the incubation were divided into two equal tubes (+/−Caspase inhibitor). Cells were centrifuged at 400×g for 5 min and re-suspend in chilled Cell Lysis Buffer with the following incubation on ice for 10 min., cell lysates were centrifugated in a microcentrifuge at max speed for 10 min at 4° C. and transferred into new tubes.
50 μl of 2× Reaction buffer/DTT mix and 1 μl of Caspase inhibitor added to 50 μl of cell lysate (+Inhibitor groups). 1 uL DMSO per 50 μL of 2× Reaction buffer was added to samples without inhibitor.
5 μL of the 1 mM Caspase-3 Substrate (DEVD-AFC; 50 μM final concentration) were added to each tube and incubated at t-37° C. for 1 hr in a water bath. All samples in duplicates were transferred to a 96 well plate. The plates were analyzed on a fluorescence plate reader (Spectramax Gemini.) at a 400 nm excitation and a 505 nm emission, and Caspase-3 activity was expressed relative to the medium control. Free AFC accumulation that resulted from cleavage of the asparatic-AFC bond monitored by fluorimeter and results in duplicates were recalculated according to the free AFC calibration curve.

[4] = system: hematopoietic stem cells (HSC) and their hematopoietic progenitors (HPC); assay: Mobilization of stem cells into peripheral blood after single subcutaneous injection (colony-forming assay); assay type: in vivo; conditions: DBA/2J mice, single 125 μg/kg dose, within one hour of administration
Experimental: Stimulatory doses of Compound A activate quiescent stem cells, induce them to proliferate and egress from bone marrow into peripheral blood. […]
After 1 hour, mice were anesthetized and blood was collected through the orbital sinus with heparinized capillary tubes. To enumerate HSC and HPC in peripheral blood, cells were washed, counted and plated in semi-solid Methylcellulose (Stem cell technology) at 100,000 per dish (5 dishes/group) and placed in CO2 incubator at 37° C. Colony-forming unit-granulocyte erythroid macrophage megakaryocyte (CFU-GEMM) and Colony-forming unit-granulocyte macrophage (CFU-GM) were detected under inverted microscope after 7-10 days in culture.

CFU-GEMM and CFU-GM = assay: Mobilization of stem cells into peripheral blood after multiple subcutaneous injections; assay type: in vivo, mice; conditions: dose response
From the text: This example is based on a protocol for a 5-day course of once-daily Compound A injections into DBA male mice similar to a G-CSF. […]
[…] At 7 days post initial injection, peripheral blood from 3 mice per group was harvested from the orbital plexus using capillary tubes (VWR) and collected into EDTA-containing tubes (VWR). Blood was also harvested and pooled from 3 naïve mice to serve as a naïve control group.

THP-1 cells = assay: Cytokine production by THP-1 cells in response to LPS; assay type: cell-based; conditions: 4 hours, levels ranging from 1 μM down to 10 nM
Experimental: THP-1 cells activated with 0.2 μM vitamin-D3 (EMD Biosciences Inc) and cultured in cRPMI [RPMI plus 10% ΔFBS (both Lonza)] were transferred to 24-well dishes. Different concentrations of Compound A or related peptides were added (in triplicate) and the plate placed in a 37° C. incubator.
After 1 hour, crude-LPS from E. coli 0111:B4 (20 ng-100 ng/ml final conc) was added to some wells. Supernatant aliquots were taken after 4 hours and cytokine levels determined using a cytokine bead array kit (BD558277).

murine recombinant DPPIV, sequence (P28843 whole entry): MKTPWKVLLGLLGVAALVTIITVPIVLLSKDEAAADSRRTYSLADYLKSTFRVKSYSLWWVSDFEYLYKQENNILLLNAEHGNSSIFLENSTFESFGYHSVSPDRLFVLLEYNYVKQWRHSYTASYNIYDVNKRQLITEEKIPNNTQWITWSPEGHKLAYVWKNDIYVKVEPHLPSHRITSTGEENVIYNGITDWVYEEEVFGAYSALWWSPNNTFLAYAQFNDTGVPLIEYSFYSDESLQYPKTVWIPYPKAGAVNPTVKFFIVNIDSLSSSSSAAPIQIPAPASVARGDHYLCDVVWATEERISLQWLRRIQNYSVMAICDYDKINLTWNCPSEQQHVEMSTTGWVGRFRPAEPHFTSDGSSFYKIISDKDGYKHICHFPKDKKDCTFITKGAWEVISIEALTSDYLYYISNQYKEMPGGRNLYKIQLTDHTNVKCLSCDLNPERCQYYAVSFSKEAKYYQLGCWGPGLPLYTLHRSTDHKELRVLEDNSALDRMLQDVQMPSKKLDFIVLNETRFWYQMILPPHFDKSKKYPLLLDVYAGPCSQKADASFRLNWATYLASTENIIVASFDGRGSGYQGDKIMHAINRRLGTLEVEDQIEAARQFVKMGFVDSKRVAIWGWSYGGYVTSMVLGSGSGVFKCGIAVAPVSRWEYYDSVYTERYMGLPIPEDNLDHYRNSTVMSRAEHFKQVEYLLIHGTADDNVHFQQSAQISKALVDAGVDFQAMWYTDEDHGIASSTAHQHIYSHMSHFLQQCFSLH
human recombinant DPPIV, sequence (P27487 whole entry): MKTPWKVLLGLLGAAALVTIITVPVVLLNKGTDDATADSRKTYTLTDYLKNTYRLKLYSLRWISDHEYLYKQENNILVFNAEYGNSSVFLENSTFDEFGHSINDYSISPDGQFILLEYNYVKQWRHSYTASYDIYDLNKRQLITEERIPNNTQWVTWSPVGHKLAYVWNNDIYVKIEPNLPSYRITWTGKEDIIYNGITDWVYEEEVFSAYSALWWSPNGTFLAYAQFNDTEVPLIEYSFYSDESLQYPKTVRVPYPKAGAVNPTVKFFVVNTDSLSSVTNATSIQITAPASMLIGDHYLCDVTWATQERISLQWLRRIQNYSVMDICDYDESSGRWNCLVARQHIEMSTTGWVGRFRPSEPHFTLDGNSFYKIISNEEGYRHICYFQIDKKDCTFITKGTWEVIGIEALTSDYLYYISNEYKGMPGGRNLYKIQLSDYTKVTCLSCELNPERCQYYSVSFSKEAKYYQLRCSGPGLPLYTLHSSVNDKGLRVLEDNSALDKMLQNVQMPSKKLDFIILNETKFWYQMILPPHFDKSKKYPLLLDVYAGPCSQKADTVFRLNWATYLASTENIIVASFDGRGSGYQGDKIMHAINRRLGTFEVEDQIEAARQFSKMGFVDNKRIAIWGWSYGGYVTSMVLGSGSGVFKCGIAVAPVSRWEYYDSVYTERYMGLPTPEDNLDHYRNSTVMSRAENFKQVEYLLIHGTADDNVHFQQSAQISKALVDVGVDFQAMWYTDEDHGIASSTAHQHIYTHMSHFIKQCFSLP

## CCCCCCCCCCCC1N[C@H](C(=O)O)CS1 (stereo partly drawn) [CAY10444]
EML-Cl cells
  rescue of CFU-GEMM: rescued CFU-GEMM

## CC(C)C[C@H](NC(=O)[C@H](CC(=O)O)NC(=O)[C@H](Cc1ccccc1)NC(=O)[C@H](Cc1c[nH]cn1)NC(=O)[C@@H]1CCCN1C(=O)[C@@H](N)Cc1ccccc1)C(=O)N[C@@H](CO)C(=O)N[C@@H](Cc1c[nH]cn1)C(=O)NCC(=O)N[C@@H](CO)C(=O)N[C@@H](C)C(=O)N[C@@H](CCC(N)=O)C(=O)N[C@H](C(=O)N[C@@H](CO)C(=O)N[C@@H](CC(=O)O)C(=O)N[C@@H](CCCCN)C(=O)N1CCC[C@H]1C(=O)O)C(C)C [Compound A, Phe-Pro-His-Phe-Asp-Leu-Ser-His-Gly-Ser-Ala-Gln-Val-Ser-Asp-Lys-Pro] (H-FPHFDLSHGSAQVSDKP-OH; N-terminus and C-terminus assumed)
Murine recombinant DPPIV
  hydrolysis of N-terminal by murine recombinant DPPIV: can be hydrolyzed
Human recombinant DPPIV
  hydrolysis of N-terminal by human recombinant DPPIV: can be hydrolyzed
[1]
  cleavage after incubation with murine bone marrow cells: proteolyses of the peptide was registered

## CCCCCCCCCCCCC/C=C/[C@@H](O)[C@@H](N)COP(=O)(O)O [Compound S1P, Sphingosine 1-phosphate]
EML-Cl cells
  rescue of CFU-GEMM: rescued CFU-GEMM

## CC(=O)N(O)CCCCCNC(=O)CCC(=O)N(O)CCCCCNC(=O)CCC(=O)N(O)CCCCCN [DFO, desferrioxamine]
Hindlimb ischemia
  Muscle Function Score: maintained impairment

## Cc1ncc(CO)c(C)c1O [DOP, 4-deoxypyridoxine]
CFU-GEMM [2]
  mobilization of colony forming cells into peripheral blood: decreased mobilization

## FC(F)(F)c1cccc(-c2noc(-c3cc(-c4ccccc4)c(C(F)(F)F)s3)n2)c1 [SEW2871]
EML-Cl cells
  rescue of CFU-GEMM: rescued CFU-GEMM

## FPHFDLSHGSAQV [Compound C, included for comparison with the oligopeptides of this invention]
CFU-GEMM [3]
  CFU-GEMM / progenitor cell mobilization into peripheral blood: did not cause CFU-GEMM mobilization; also recorded: did not mobilize progenitor cells
Caspase-3
  Caspase-3 proteolytic activity, Exp 1: 66%
  Caspase-3 proteolytic activity, Exp 2: 83%
  Caspase-3 proteolytic activity, Exp 3: 53%
  Caspase-3 proteolytic activity, Sum of 3 experiments: 67.3 +/− 15%
  Caspase-3 activation induced by HS and SCF deprivation: prevented Caspase-3 activation
[4]
  increase in CFU-GEMM numbers: two-fold
CFU-GEMM and CFU-GM
  dose with the best effect on CFU-GEMM mobilization: 0.75 mg/kg
EML-Cl cells; 3 hr HS and SCF deprivation, compared with combined HS and SCF
  rescue of colony-forming cells (CFUmix/CFU-GEMM) during starvation: rescued colony-forming cells

## JTE-013
EML-Cl cells
  rescue of CFU-GEMM: rescued CFU-GEMM

## N-acetyl-Ser-Asp-Lys-Pro (Ac-SDKP) [AcSDKP]
THP-1 cells
  TNFα secretion: strongly inhibited
Caspase-3
  Caspase-3 proteolytic activity, Exp 1: 70%
  Caspase-3 proteolytic activity, Exp 2: 84%
  Caspase-3 proteolytic activity, Exp 3: 65%
  Caspase-3 proteolytic activity, Sum of 3 experiments: 73 +/− 9.8%
  Caspase-3 activation induced by HS and SCF deprivation: prevented Caspase-3 activation
